Read-outs that look alike come from different tables or passages of the source.
Assays:
[1] = biological target: T1, α1G T-type calcium channel (Homo sapiens, UniProt O43497); experiment: Assay for % inhibiting activity against T-type calcium channel using FDSS6000 (fluo-3 calcium imaging, KCl activation); format: cell-based; settings: HEK293 cells stably expressing α1G T-type calcium channel and Kir2.1, compounds of the examples; for inhibition at 10 µM: read-out: FDSS (% inhibition)/10uM
T1 construct: host or cells: HEK293
T1 sequence (O43497 whole entry): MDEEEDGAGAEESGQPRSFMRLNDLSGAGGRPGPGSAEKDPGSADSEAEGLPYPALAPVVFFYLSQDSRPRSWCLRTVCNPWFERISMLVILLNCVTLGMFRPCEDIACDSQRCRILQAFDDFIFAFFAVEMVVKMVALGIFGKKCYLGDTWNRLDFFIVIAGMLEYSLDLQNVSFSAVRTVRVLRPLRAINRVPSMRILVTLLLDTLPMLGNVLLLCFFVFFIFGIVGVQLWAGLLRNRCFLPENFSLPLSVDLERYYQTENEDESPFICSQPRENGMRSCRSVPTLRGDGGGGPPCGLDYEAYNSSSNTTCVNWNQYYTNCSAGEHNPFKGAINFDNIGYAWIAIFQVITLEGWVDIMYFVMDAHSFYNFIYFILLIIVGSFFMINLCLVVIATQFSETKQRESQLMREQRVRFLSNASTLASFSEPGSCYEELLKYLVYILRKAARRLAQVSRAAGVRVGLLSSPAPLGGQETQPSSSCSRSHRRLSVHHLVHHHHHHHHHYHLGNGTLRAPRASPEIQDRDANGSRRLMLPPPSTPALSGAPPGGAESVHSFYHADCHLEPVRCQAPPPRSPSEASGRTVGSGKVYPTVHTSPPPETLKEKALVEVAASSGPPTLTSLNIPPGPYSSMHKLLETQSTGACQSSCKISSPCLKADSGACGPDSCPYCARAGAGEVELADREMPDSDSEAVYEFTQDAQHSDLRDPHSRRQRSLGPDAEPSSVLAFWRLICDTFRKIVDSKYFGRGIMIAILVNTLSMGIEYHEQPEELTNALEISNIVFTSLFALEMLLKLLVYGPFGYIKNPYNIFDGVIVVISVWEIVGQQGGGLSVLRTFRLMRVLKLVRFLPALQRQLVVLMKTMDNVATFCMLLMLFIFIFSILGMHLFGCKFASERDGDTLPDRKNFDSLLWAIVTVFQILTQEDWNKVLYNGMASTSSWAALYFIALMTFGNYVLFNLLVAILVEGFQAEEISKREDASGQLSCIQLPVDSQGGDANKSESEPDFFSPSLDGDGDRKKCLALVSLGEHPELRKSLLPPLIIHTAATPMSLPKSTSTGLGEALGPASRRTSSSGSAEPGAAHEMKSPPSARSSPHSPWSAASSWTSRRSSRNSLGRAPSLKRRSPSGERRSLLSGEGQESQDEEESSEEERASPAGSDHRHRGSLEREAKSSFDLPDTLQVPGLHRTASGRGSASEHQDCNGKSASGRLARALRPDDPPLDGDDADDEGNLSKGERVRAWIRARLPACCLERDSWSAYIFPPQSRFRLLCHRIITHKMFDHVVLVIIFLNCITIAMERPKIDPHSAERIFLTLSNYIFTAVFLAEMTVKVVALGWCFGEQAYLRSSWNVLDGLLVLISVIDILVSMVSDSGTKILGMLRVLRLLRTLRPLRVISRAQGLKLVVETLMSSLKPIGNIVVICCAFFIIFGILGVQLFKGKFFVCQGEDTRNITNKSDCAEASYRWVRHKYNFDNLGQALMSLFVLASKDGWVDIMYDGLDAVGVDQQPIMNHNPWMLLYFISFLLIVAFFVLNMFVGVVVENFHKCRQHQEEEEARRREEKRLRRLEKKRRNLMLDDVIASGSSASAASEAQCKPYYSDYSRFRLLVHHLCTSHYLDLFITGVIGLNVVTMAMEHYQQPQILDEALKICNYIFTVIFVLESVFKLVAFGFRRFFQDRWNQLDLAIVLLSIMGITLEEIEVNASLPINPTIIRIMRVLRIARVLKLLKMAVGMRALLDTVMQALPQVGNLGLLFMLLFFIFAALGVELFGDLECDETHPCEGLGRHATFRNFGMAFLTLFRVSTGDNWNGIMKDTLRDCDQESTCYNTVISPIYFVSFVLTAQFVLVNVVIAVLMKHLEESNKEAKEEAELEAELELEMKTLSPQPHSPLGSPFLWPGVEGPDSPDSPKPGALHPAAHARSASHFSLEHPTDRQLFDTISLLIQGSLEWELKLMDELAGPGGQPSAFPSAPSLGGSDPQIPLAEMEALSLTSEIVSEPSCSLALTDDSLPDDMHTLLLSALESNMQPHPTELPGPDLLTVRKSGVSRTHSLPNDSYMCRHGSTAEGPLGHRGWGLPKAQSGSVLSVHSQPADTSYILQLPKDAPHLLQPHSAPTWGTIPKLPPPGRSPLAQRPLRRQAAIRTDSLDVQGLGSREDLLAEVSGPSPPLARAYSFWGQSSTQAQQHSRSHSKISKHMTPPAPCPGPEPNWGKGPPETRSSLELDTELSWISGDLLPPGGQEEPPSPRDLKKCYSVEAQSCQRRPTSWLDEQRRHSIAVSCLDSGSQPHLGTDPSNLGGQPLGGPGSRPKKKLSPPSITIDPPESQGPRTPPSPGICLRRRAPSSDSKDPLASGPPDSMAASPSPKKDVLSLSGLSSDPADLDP
Outline: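 Percent inhibition derived from […] area against untreated control (100%), after 75 s compound pre-exposure and 75 mM KCl activation. Cells: HEK293 with stable α1G plus Kir2.1, fluo-3/AM-labelled (5 μM), assayed in pH 7.4 HEPES containing 10 mM CaCl2.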

Compound: CN1C(=NC2CCCCCC2)SCC1C(=O)NCc1cccc(F)c1.Cl (centres unmarked) [KHG24666, (2-cycloheptylimino-3-methyl-1,3-thiazolidine-4-yl)-N-(3-fluorobenzyl)-carboxamide hydrochloride]
- inhibition at 10 µM ([1]; HEK293, 10 μM): 46.2%
- melting point: 226.1 °C

Compound: CN1C(=NC2CCCCCC2)SCC1C(=O)NCc1cccc(F)c1 (centres unmarked) [KHG24667, (2-cycloheptylimino-3-methyl-1,3-thiazolidine-4-yl)-N-(3-fluorobenzyl)-carboxamide]
- FDSS (% inhibition)/10uM ([1]; 10 μM): 45.99%
- melting point: 140.1 °C

Compound: Br.CN1C(=NC2CCCCCC2)SCC1C(=O)NCc1cccc(Br)c1 (centres unmarked) [KHG24668, (2-cycloheptylimino-3-methyl-1,3-thiazolidine-4-yl)-N-(3-bromobenzyl)-carboxamide hydrobromide]
- inhibition at 10 µM ([1]; HEK293, 10 μM): 50.7%
- melting point: 197.3 °C

Compound: CN1C(=NC2CCCCCC2)SCC1C(=O)NCc1cccc(Br)c1 (centres unmarked) [KHG24669, (2-cycloheptylimino-3-methyl-1,3-thiazolidine-4-yl)-N-(3-bromobenzyl)-carboxamide]
- FDSS (% inhibition)/10uM ([1]; 10 μM): 36.57%
- melting point: 133 °C

Compound: Br.CN1C(=NC2CCCCCC2)SCC1C(=O)NCc1ccccc1C(F)(F)F (centres unmarked) [KHG24670, (2-cycloheptylimino-3-methyl-1,3-thiazolidine-4-yl)-N-(2-trifluoromethylbenzyl)-carboxamide hydrobromide]
- inhibition at 10 µM ([1]; HEK293, 10 μM): 46.7%
- melting point: 236.9 °C

Compound: CN1C(=NC2CCCCCC2)SCC1C(=O)NCc1ccccc1C(F)(F)F (centres unmarked) [KHG24671, (2-cycloheptylimino-3-methyl-1,3-thiazolidine-4-yl)-N-(2-trifluoromethylbenzyl)-carboxamide]
- FDSS (% inhibition)/10uM ([1]; 10 μM): 47.2%
- melting point: 223 °C

Compound: CCCCN1C(=NC23CC4CC(CC(C4)C2)C3)SCC1CC(=O)Nc1ccc(Cl)cc1.Cl (centres unmarked) [KHG24775, [2-(1-adamantylimino)-3-(n-butyl)-1,3-thiazolidine-4-yl]-N-(4-chlorophenyl)-acetamide hydrochloride]
- inhibition at 10 µM ([1]; HEK293, 10 μM): 62.9%
- melting point: 158 °C

Compound: CCCCc1ccc(NC(=O)CC2CSC(=NC34CC5CC(CC(C5)C3)C4)N2CCCC)cc1.Cl (centres unmarked) [KHG24776, [2-(1-adamantylimino)-3-(n-butyl)-1,3-thiazolidine-4-yl]-N-(4-n-butylphenyl)-acetamide hydrochloride]
- inhibition at 10 µM ([1]; HEK293, 10 μM): 33.8%
- melting point: 169 °C

Compound: CCCCN1C(=NC23CC4CC(CC(C4)C2)C3)SCC1CC(=O)Nc1ccc(C(F)(F)F)cc1.Cl (centres unmarked) [KHG24777, [2-(1-adamantylimino)-3-(n-butyl)-1,3-thiazolidine-4-yl]-N-(4-trifluoromethylphenyl)-acetamide hydrochloride]
- inhibition at 10 µM ([1]; HEK293, 10 μM): 49.2%
- melting point: 220 °C

Compound: CCCCN1C(=NC23CC4CC(CC(C4)C2)C3)SCC1CC(=O)Nc1ccc(F)cc1.Cl (centres unmarked) [KHG24780, [2-(1-adamantylimino)-3-(n-butyl)-1,3-thiazolidine-4-yl]-N-(4-fluorophenyl)-acetamide hydrochloride]
- inhibition at 10 µM ([1]; 10 μM): 55.3%
- melting point: 163 °C

Compound: CCCCN1C(=NC23CC4CC(CC(C4)C2)C3)SCC1CC(=O)Nc1ccc(C)cc1.Cl (centres unmarked) [KHG24781, [2-(1-adamantylimino)-3-(n-butyl)-1,3-thiazolidine-4-yl]-N-(4-methylphenyl)-acetamide hydrochloride]
- inhibition at 10 µM ([1]; HEK293, 10 μM): 47.2%
- melting point: 164 °C

Compound: CCCCN1C(=NC23CC4CC(CC(C4)C2)C3)SCC1CC(=O)Nc1ccc(CC)cc1.Cl (centres unmarked) [KHG24782, [2-(1-adamantylimino)-3-(n-butyl)-1,3-thiazolidine-4-yl]-N-(4-ethylphenyl)-acetamide hydrochloride]
- inhibition at 10 µM ([1]; HEK293, 10 μM): 30.6%
- melting point: 156 °C

Compound: CCCCN1C(=NC23CC4CC(CC(C4)C2)C3)SCC1CC(=O)Nc1ccc(Cl)cc1F.Cl (centres unmarked) [KHG24783, [2-(1-adamantylimino)-3-(n-butyl)-1,3-thiazolidine-4-yl]-N-(4-chloro-2-fluorophenyl)-acetamide hydrochloride]
- inhibition at 10 µM ([1]; HEK293, 10 μM): 54.4%
- melting point: 161 °C

Source: US7998989B2, “2-Imino-1,3-thiazoline-based compounds and T-type calcium channel inhibitors containing the same” (Korea Institute of Science and Technology, priority 2007, dated 2011)
